Reference: ChEMBL document CHEMBL4418493, “N-hydroxyformamide compounds and compositions comprising them for use as BMP1, TLL1 and/or TLL2 inhibitors” (2018)

Columns and labels:
[1] = Reduction in mature collagen deposition levels in human cardiac fibroblasts incubated for 24 to 48 hrs by immunostaining based assay; format: functional
[2] = Reduction in PICP levels in human cardiac fibroblasts incubated for 24 to 48 hrs by ELISA; format: functional
[3] = Drug metabolism in heparinized pooled human plasma at pH 7.5 assessed as formation of ((2-ethoxy-4-(5-((((R)-2-((R)-1-(N-hydroxyformamido)propyl)heptanamido)methyl)carbamoyl)furan-2-yl)benzamido)methyl)phosphonic acid at 100 to 2000 ng/ml incubated up to 4 or 24 hrs by LC-MS/MS analysis; format: ADME, cell-free; details: pH 7.5, 24 h
[4] = Drug metabolism in heparinized pooled human plasma at pH 7.5 assessed as formation of (((3-ethoxy-5-(5-((((R)-2-((R)-1-(N-hydroxyformamido)propyl)heptanamido)methyl)carbamoyl)furan-2-yl)phenyl)(hydroxy)phosphoryl)oxy)methyl isopropyl carbonate at 100 to 2000 ng/ml incubated up to 4 or 24 hrs by LC-MS/MS analysis; format: ADME, cell-free; details: pH 7.5, 24 h

Drug metabolism [3]	Drug metabolism [4]	SMILES	IC50 [1] [µM]	IC50 [2] [µM]
Metabolite_Detected	–	CCCCC[C@@H](C(=O)NCNC(=O)c1ccc(-c2ccc(C(=O)NCP(=O)(O)O)c(OCC)c2)o1)[C@@H](CC)N(C=O)OC(=O)c1ccc(OC)cc1	< 1	< 3.98
Metabolite_Detected	–	CCCCC[C@@H](C(=O)NCNC(=O)c1ccc(-c2ccc(C(=O)NCP(=O)(O)O)c(OCC)c2)o1)[C@@H](CC)N(C=O)OC(=O)c1ccccc1	–	< 3.98
–	Metabolite_Detected	CCCCC[C@@H](C(=O)NCNC(=O)c1ccc(-c2cc(OCC)cc(P(=O)(OCOC(=O)OC(C)C)OCOC(=O)OC(C)C)c2)o1)[C@@H](CC)N(O)C=O	–	–
Metabolite_Detected	–	CCCCC[C@@H](C(=O)NCNC(=O)c1ccc(-c2ccc(C(=O)NCP(=O)(O)O)c(OCC)c2)o1)[C@@H](CC)N(C=O)OC(=O)c1ccc(OC)cc1C	–	< 3.98
